The values that follow come from EP4119145A1, “COMPOUNDS FOR THE TREATMENT OF COVID-19” (priority 2021, dated 2023).

The test addresses SARS-CoV-2 PL-Pro (Severe acute respiratory syndrome coronavirus 2, UniProt P0DTD1). The experiment in a line: biochemical. The following applies: for inhibition at 20 µM: read-out: PLPro Inhibition [%] Primary Screen (20 µM).
The mark [1] stands for this setting: dose response, 0.014 µM to 20 µM, 8 concentration points, read-out: IC50.

Where a name gives a salt, the structure may show the parent alone. Read-outs that look alike come from different tables or passages of the source.

As to `Cc1nc2c(=O)n(C)c(=O)nc-2n(C)n1` [Compound 2, 1,3,6-Trimethylpyrimido[5,4-e][1,2,4]triazine-5,7(1H,6H)-dione], the inhibition (commonly the change of the read-out against control, counted positive when it falls) at 20 µM amounted to 181%. Under setting [1], the half-inhibitory concentration (IC50) – broadly, the point on the concentration scale where inhibition reaches its midpoint – amounted to 74 nM.

`Cc1cc2nc3c(=O)[nH]c(=O)nc-3n(C)c2cc1C=O` [Compound 3, 7,10-Dimethyl-2,4-dioxo-2,3,4,10-tetrahydrobenzo[g]pteridine-8-carbaldehyde]: the inhibition at 20 µM is 119%. Moreover, the half-maximal inhibitory concentration (IC50) under setting [1] was determined as 401 nM. Consider `O=C1C(=O)c2cc([N+](=O)[O-])ccc2-c2ccccc21` [Compound 4, 2-Nitrophenanthrene-9,10-dione], for which the inhibition at 20 µM was determined as 186%. Also, under setting [1], the IC50 is 129 nM.

As to `CC(C)(C)C(=O)Nc1ccc2c(c1)C(=O)C(=O)c1ccccc1-2` [Compound 5, N-(9,10-Dioxo-9,10-dihydrophenanthren-2-yl)-2,2-dimethylpropionamide], the inhibition at 20 µM was found to be 184%. Besides, the half-inhibitory concentration (IC50) under setting [1] was 246 nM. For `O=C1C(=O)c2ccccc2-c2ccccc21` [Compound 6, phenanthrene-9,10-dione] the same measures were 181% and 504 nM. Consider `Cc1c(S(=O)(=O)O)oc2c1C(=O)C(=O)c1c-2ccc2c1CCCC2(C)C` [Compound 8, 1,6,6-Trimethyl-10,11-dioxo-6,7,8,9,10,11-hexahydrophenanthro[1,2-b]furan-2-sulfonic acid sodium salt], for which the inhibition at 20 µM was 124%.

Consider `CC1(C)C(=O)N=C2C1=C(O)C(=O)c1ccccc12` [Compound 9, 4-Hydroxy-3,3-dimethyl-3,5-dihydro-2H-benzobenzo[g]indole-2,5-dione], for which the inhibition at 20 µM came out at 155%. In addition, the half-maximal inhibitory concentration (IC50) under setting [1] came to 390 nM. The like results for `CC1(C)CCC2=C(O1)c1ccccc1C(=O)C2=O` [Compound 10, 2,2-Dimethyl-3,4-dihydro-2H-benzo[h]1-benzopyrane-5,6-dione] were, in that order, 146% and 4430 nM. The like results for `Cc1cccc2c1ccc1c3c(c(=O)oc(=O)c12)[C@@H](C)CO3` [Compound 11, (4R)-4,9-Dimethyl-4,5-dihydrofuro[3,2-c]naphtho[2,1-e]oxepine-1,3-dione] were, in that order, 80.7% and 920 nM. As to `O=C1C(Cl)=C(NCCN2CCOCC2)C(=O)c2ncccc21` [Compound 12, 6-Chloro-7-[2-(4-morpholinyl)ethylamino]-5,8-dihydroquinoline-5,8-dione], half-maximal inhibition (IC50) required 220 nM and the inhibition at 20 µM turned out to be 151%. As to `Cc1ccc(NC2=CC(=O)c3sc(C)nc3C2=O)cc1` [Compound 13, 2-methyl-5-(4-methylanilino)-1,3-benzothiazole-4,7-dione], the inhibition at 20 µM is 160%. Moreover, under setting [1], the half-inhibitory concentration (IC50) was determined as 260 nM. Take `CC[N+](C)(CC)CCC[n+]1c(-c2ccccc2)c2cc(N)ccc2c2ccc(N)cc21` [Compound 14, 3,8-Diamino-5-(3-(diethyl(methyl)ammonio)propyl)-6-phenylphenanthridin-5-ium iodide]: the IC50 is 240 nM and the inhibition at 20 µM turned out to be 136%.

As to `CCOC(=O)C1=C(C)N=c2s/c(=C\c3ccc(OCC(=O)O)cc3)c(=O)n2C1c1ccc(SC)cc1` (centres unmarked) [Compound 15, 2-[4-[(Z)-[6-ethoxycarbonyl-7-methyl-5-(4-methylsulfanylphenyl)-3-oxo-5H-[1,3]thiazolo[3,2-a]pyrimidin-2-ylidene]methyl]phenoxy]acetic acid], the inhibition at 20 µM amounted to 82.8%. Under setting [1], the half-inhibitory concentration (IC50) amounted to 3140 nM. The like results for `CC(=NNC(=N)N)c1cc(NC(=O)CCCCCCCCC(=O)Nc2cc(C(C)=NNC(=N)N)cc(C(C)=NNC(=N)N)c2)cc(C(C)=NNC(=N)N)c1` [Compound 16, N,N'-Bis[3,5-bis[1-(2-amidinohydrazono)ethyl]phenyl]decanediamide] were, in that order, 140% and 1210 nM.

Turning to “cobalt(3+);[(2R,3S,4R,5S)-5-(5,6-dimethylbenzimidazol-1-yl)-4-hydroxy-2-(hydroxymethyl)oxolan-3-yl][(2R)-1-[3-[(1R,2R,3R,4Z,7S,9Z,12S,13S,14Z,17S,18S,19R)-2,13,18-tris(2-amino-2-oxoethyl)-7,12,17-tris(3-amino-3-oxopropyl)-3,5,8,8,13,15,18,19-octamethyl-2,7,12,17-tetrahydro-1H-corrin-21-id-3-yl]propanoylamino]propan-2-yl] phosphate;cyanide [Compound 17]”, the “PLPro Inhibition [%] Primary Screen (20 µM)” value is reported as 141.27%. In addition, the IC50 (read-out: IC50) was 2900 nM.
